The source of these data is patent publication US9738603B2, “Complex of glucose derivative and proline, crystal, preparation method and use” (SHANGHAI YINGLI PHARMACEUTICAL CO., LTD., priority 2012, dated 2017).

SMILES strings stand for the structures. Entries after “also recorded” stand apart in the source; their conditions may differ.

This data set in a line: Dynamic vapor sorption test. Format: physicochemical. The conditions noted are these: 25° C.; for weight increased finally: 95% RH; for sensitivity to moisture / hygroscopicity: dynamic vapor sorption isotherm, 0-95% RH. Here is the method:
2. Parameters of dynamic vapor sorption test: The instrument: a dynamic moisture absorption analyzer (DVS Advantage, Surface Measurement System Ltd); Experimental temperature: 25° C.; Adsorption range: 0-95% relative humidity; Step interval: 5% relative humidity; Balance standard of weight gain: less than 0.01% weight change in 5 minutes; Longest time of balance: 120 minutes.

Consider `OC[C@H]1O[C@@H](c2ccc(Cl)c(Cc3ccc(OCC4(F)COC4)cc3)c2)[C@H](O)[C@@H](O)[C@@H]1O` [compound A, (2S,3R,4R,5S,6R)-2-(4-chloro-3-(4-((3-fluorooxetan-3-yl)methoxy)benzyl)phenyl)-6-(hydroxymethyl)tetrahydro-2H-pyran-3,4,5-triol], for which the weight increased finally was 14.72% and the “sensitivity to moisture / hygroscopicity” value is given as “sensitive to moisture”. In addition, for the setting “relative humidity 50%”, the moisture absorbed entry is reported as “about 4.8%”.
With `OC[C@H]1O[C@@H](c2ccc(Cl)c(Cc3ccc(OCC4(F)COC4)cc3)c2)[C@H](O)[C@@H](O)[C@@H]1O` [eutectic crystal of the complex formed by compound A and L-p] [complex of (2S,3R,4R,5S,6R)-2-(4-chloro-3-(4-((3-fluorooxetan-3-yl)methoxy)benzyl)phenyl)-6-(hydroxymethyl)tetrahydro-2H-pyran-3,4,5-triol and bis(L-proline)], the weight increased finally result was “about 9.967%” and the “sensitivity to moisture / hygroscopicity” value is “not very sensitive to moisture; also recorded: low hygroscopicity”. Further, the “moisture absorbed (weight gain against dry weight)” value (relative humidity increased from 0% to 85% RH) is recorded as 2.174%.
